Read-outs that look alike come from different tables or passages of the source. *1 amine or outer side, *2 acyl side, *3 side chain or, on linkers, in order; H or OH if unused. Where a SMILES comes first, the peptide text is derived from it. Bridges are numbered along the chain shown (N, C = ends). Side-chain parts run from the residue outwards. [ ]: non-standard residue; d: D form. The star is where a group is joined. X5 = NC(=O)[C@H](CCCCNC(=O)CN1CCN(CC(=O)O)CCN(CC(=O)O)CCN(CC(=O)O)CC1)NC(=O)CCC(=O)NCCCOCCOCCOCCCN*; DOTA(Lu) = O=C1CN2CCN3CCN(CC(=O)*)CCN(CC2)CC(=O)[O][Lu]([O]1)[O]C(=O)C3; NH(1-deoxy-D-glucityl) = OC[C@@H](O)[C@@H](O)[C@H](O)[C@@H](O)CN*; DOTA = O=C(O)CN1CCN(CC(=O)O)CCN(CC(=O)*)CCN(CC(=O)O)CC1; Maleimide(3,4-diyl) = O=C1NC(=O)C([*:2])=C1[*:1]; Trp(5-Cl) = N[C@@H](Cc1c[nH]c2ccc(Cl)cc12)C(=O)O; Pyridine(2,6-diCH2) = c1cc(C[*:1])nc(C[*:2])c1; Trp(7-aza) = N[C@@H](Cc1c[nH]c2ncccc12)C(=O)O; Phe(3-Cl) = N[C@@H](Cc1cccc(Cl)c1)C(=O)O; 1Nal = N[C@@H](Cc1cccc2ccccc12)C(=O)O; 2Nal = N[C@@H](Cc1ccc2ccccc2c1)C(=O)O; mXylylene = c1cc(C[*:1])cc(C[*:2])c1; Glutaryl = O=C(CCCC(=O)[*:2])[*:1]; Hyp = O=C(O)[C@@H]1C[C@@H](O)CN1; X1 = O=C(CN1CCC(N[*:1])CC1)[*:2]; Suc = O=C(CCC(=O)[*:2])[*:1]; hCys = N[C@@H](CCS)C(=O)O; Api = NC1(C(=O)O)CCNCC1; Thp = NC1(C(=O)O)CCOCC1; Aib = CC(C)(N)C(=O)O
Molecular target: T1, GIPR (CHO-K1-hGIPR cells) (Homo sapiens, UniProt P48546)
T1 construct: host or cells: CHO-K1
T1 sequence (P48546 22-466): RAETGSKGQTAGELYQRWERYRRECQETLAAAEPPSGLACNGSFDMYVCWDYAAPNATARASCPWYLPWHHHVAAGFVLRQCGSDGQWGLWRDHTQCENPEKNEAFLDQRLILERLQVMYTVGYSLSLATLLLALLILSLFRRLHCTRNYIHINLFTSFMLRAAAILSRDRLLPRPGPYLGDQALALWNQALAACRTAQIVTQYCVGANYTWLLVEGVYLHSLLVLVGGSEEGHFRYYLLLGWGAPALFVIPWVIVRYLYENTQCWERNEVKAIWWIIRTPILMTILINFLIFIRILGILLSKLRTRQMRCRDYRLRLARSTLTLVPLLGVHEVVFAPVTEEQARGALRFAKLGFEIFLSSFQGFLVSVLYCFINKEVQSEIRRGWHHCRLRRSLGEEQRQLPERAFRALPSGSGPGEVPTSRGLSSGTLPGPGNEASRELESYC
Assay: FACS binding assay
Procedure, shortened: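 Median fluorescence in the APC channel, measured on washed CHO-K1 cells overexpressing human GIPR, was fitted by four-parameter logistic regression against peptide concentration to yield EC50 or IC50 values. Secondary labelling used APC-streptavidin (1 μg/mL, 30 min, ice).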

[1] = competition with 20 nM GIP-057, 4° C. for 1 hour, read-out: pIC50 Category (converted)
[2] = competition with 20 nM GIP-057, 4° C., 1 hour, read-out: pIC50 Category (converted)

Row | Compound | IC50 [1] [nM] | IC50 [2] [nM] | further results
1 | CC[C@H](C)[C@@H]1NC(=O)[C@H](CC(C)C)NC(=O)C2(CCOCC2)NC(=O)[C@@H](NC(=O)[C@@H](CC(C)C)NC(=O)[C@H](CCC(=O)O)NC(=O)[C@@H]2C[C@@H](O)CN2C(=O)[C@H](Cc2c[nH]c3ccc(Cl)cc23)NC(=O)[C@H](Cc2c[nH]c3ccccc23)NC(=O)[C@H](CC(=O)O)NC(C)=O)CSC2=C(SCC[C@@H](C(N)=O)NC1=O)C(=O)NC2=O [GIP-361, Ac-Asp-Trp-5Clw-Hyp-Glu-leu-[Cys(mli)-Thp-Leu-Ile-Hcy]-NH2] (Ac-DW[Trp(5-Cl)][Hyp]E[dL]C[Thp]LI[hCys]-NH2; linker 7-11 via Maleimide(3,4-diyl)) | < 10 |  | 
2 | CC[C@H](C)[C@@H]1NC(=O)[C@H](CC(C)C)NC(=O)C2(CCN(C(=O)CCCC(=O)NC[C@H](O)[C@@H](O)[C@H](O)[C@H](O)CO)CC2)NC(=O)[C@@H](NC(=O)[C@@H](CC(C)C)NC(=O)[C@H](CCC(=O)O)NC(=O)[C@@H]2C[C@@H](O)CN2C(=O)[C@H](Cc2c[nH]c3ccc(Cl)cc23)NC(=O)[C@H](Cc2c[nH]c3ccccc23)NC(=O)CCC(=O)O)CSCc2cccc(n2)CSC[C@@H](C(=O)NC2CCN(CC(=O)N[C@@H](CCCCNC(=O)CN3CCN(CC(=O)O)CCN(CC(=O)O)CCN(CC(=O)O)CC3)C(N)=O)CC2)NC1=O [GIP-073, HO-Succinyl-Trp-5Clw-Hyp-Glu-leu-[Cys(2Lut)-Apc(AGLU-Glutar)-Leu-Ile-Cys]-APAc-Lys(DOTA)-NH2] (Suc-W[Trp(5-Cl)][Hyp]E[dL]C[Api]([Glutaryl-NH(1-deoxy-D-glucityl)])LIC[X1]K(DOTA)-NH2; linker 6-10 via Pyridine(2,6-diCH2)) |  | < 10 | 
3 | CC[C@H](C)[C@@H]1NC(=O)[C@H](CC(C)C)NC(=O)C2(CCOCC2)NC(=O)[C@@H](NC(=O)[C@@H](CC(C)C)NC(=O)[C@H](CCC(=O)O)NC(=O)[C@@H]2C[C@@H](O)CN2C(=O)[C@H](Cc2c[nH]c3ccc(Cl)cc23)NC(=O)[C@H](Cc2c[nH]c3ccccc23)NC(=O)[C@H](CC(=O)O)NC(=O)CN2CCC(NC(=O)[C@@H](CCC(=O)NC[C@H](O)[C@@H](O)[C@H](O)[C@H](O)CO)NC(=O)CN3CCN4CCN5CCN(CC3)CC(=O)[O][Lu]([O]C(=O)C4)[O]C(=O)C5)CC2)CSCc2cccc(n2)CSC[C@@H](C(=O)NC2CCN(CC(=O)N[C@H](CCC(=O)NC[C@H](O)[C@@H](O)[C@H](O)[C@H](O)CO)C(N)=O)CC2)NC1=O [GIP-062, LuDOTA-glu(AGLU)-APAc-Asp-Trp-5Clw-Hyp-Glu-leu-[Cys(2Lut)-Thp-Leu-Ile-Cys]-APAc-glu(AGLU)-NH2] ({DOTA(Lu)}-[dE](NH(1-deoxy-D-glucityl))[X1]DW[Trp(5-Cl)][Hyp]E[dL]C[Thp]LIC[X1][dE](NH(1-deoxy-D-glucityl))-NH2; linker 9-13 via Pyridine(2,6-diCH2)) |  |  | IC50 (pIC50 Category, competition with 20 nM GIP-057, 4° C., 1 hour): < 10 nM
4 | CC[C@H](C)[C@@H]1NC(=O)[C@H](CC(C)C)NC(=O)C2(CCOCC2)NC(=O)[C@@H](NC(=O)[C@@H](CC(C)C)NC(=O)[C@H](CCC(=O)O)NC(=O)[C@@H]2C[C@@H](O)CN2C(=O)[C@H](Cc2c[nH]c3ccc(Cl)cc23)NC(=O)[C@H](Cc2cccc(Cl)c2)NC(=O)[C@H](CC(=O)O)NC(C)=O)CSCc2cccc(n2)CSC[C@@H](C(N)=O)NC1=O [GIP-209, Ac-Asp-Mcf-5Clw-Hyp-Glu-leu-[Cys(2Lut)-Thp-Leu-Ile-Cys]-NH2] (Ac-D[Phe(3-Cl)][Trp(5-Cl)][Hyp]E[dL]C[Thp]LIC-NH2; linker 7-11 via Pyridine(2,6-diCH2)) |  | < 10 | 
5 | CC[C@H](C)[C@@H]1NC(=O)[C@H](CC(C)C)NC(=O)C(C)(C)NC(=O)[C@@H](NC(=O)[C@@H](CC(C)C)NC(=O)[C@H](CCC(=O)O)NC(=O)[C@@H]2CCCN2C(=O)[C@H](Cc2cccc3ccccc23)NC(=O)[C@H](Cc2c[nH]c3ncccc23)NC(=O)[C@H](CC(=O)O)NC(C)=O)CSCc2cccc(c2)CSC[C@@H](C(=O)NCCCOCCOCCOCCCNC(=O)CCC(=O)N[C@@H](CCCCNC(=O)CN2CCN(CC(=O)O)CCN(CC(=O)O)CCN(CC(=O)O)CC2)C(N)=O)NC1=O [GIP-303, Ac-Asp-7Nw-1Ni-Pro-Glu-leu-[Cys(3MeBn)-Aib-Leu-Ile-Cys]-Ttds-Lys(DOTA)-NH2] (Ac-D[Trp(7-aza)][1Nal]PE[dL]C[Aib]LIC-X5; linker 7-11 via mXylylene) | > 1000 |  | 
6 | CC[C@H](C)[C@@H]1NC(=O)[C@H](CC(C)C)NC(=O)C(C)(C)NC(=O)[C@@H](NC(=O)[C@H](CC(C)C)NC(=O)[C@H](CCC(=O)O)NC(=O)[C@@H]2CCCN2C(=O)[C@H](Cc2c[nH]c3ccccc23)NC(=O)[C@H](Cc2ccc3ccccc3c2)NC(=O)[C@H](CC(=O)O)NC(C)=O)CSCc2cccc(c2)CSC[C@@H](C(=O)NCCCOCCOCCOCCCNC(=O)CCC(=O)N[C@@H](CCCCNC(=O)CN2CCN(CC(=O)O)CCN(CC(=O)O)CCN(CC(=O)O)CC2)C(N)=O)NC1=O [GIP-272, Ac-Asp-2Ni-Trp-Pro-Glu-Leu-[Cys(3MeBn)-Aib-Leu-Ile-Cys]-Ttds-Lys(DOTA)-NH2] (Ac-D[2Nal]WPELC[Aib]LIC-X5; linker 7-11 via mXylylene) | 100 to 794 |  | 
